Source: BigSolDB 2.1

C[C@]12C=CC(=O)C=C1CC[C@@H]1[C@@H]2[C@@H](O)C[C@@]2(C)[C@H]1CC[C@]2(O)C(=O)CO
solubility (mole fraction)
Conditions	in DMF	in NMP	in acetonitrile	in n-dodecane	in n-hexadecane	in n-nonanol	in n-octanol	in n-pentanol	in sec-butanol	in water
293.2 K	0.00818	0.00465	0.00219	1.44e-05	2.15e-05	0.000507	0.000316	0.000283	0.000248	1.05e-05
298.2 K	0.00869	0.00525	0.00236	1.64e-05	2.35e-05	0.000643	0.000419	0.000358	0.000294	1.1e-05
303.2 K	0.00943	0.0061	0.00255	1.87e-05	2.61e-05	0.000833	0.000568	0.000449	0.000362	1.25e-05
308.2 K	0.0101	0.00688	0.0028	2.16e-05	3.01e-05	0.000999	0.000712	0.000559	0.000444	1.4e-05
313.2 K	0.0108	0.00784	0.00305	2.45e-05	3.4e-05	0.00126	0.000913	0.000699	0.00053	1.6e-05
318.2 K	0.0116	0.00881	0.00334	2.79e-05	3.88e-05	0.00151	0.00114	0.000881	0.000628	1.8e-05
323.2 K	0.0125	0.00998	0.00364	3.28e-05	4.5e-05	0.00179	0.00141	0.0011	0.00075	2e-05
328.2 K	0.0141	0.0114	0.00407	3.82e-05	5.41e-05	0.00215	0.0018	0.00139	0.000905	2.6e-05
